Oligonucleotides are written 5' to 3', each unit as a sugar letter and its base; * is a phosphorothioate linkage, no mark a phosphodiester; rarer units and linkages stand in square brackets, end groups in braces. Plain capitals give the bases only. d = 2'-deoxy (DNA); r = 2'-OH (RNA)
target: P2RX3; test: reporter assay of Huesken 2005; settings: siRNA
Also: test concentration or dose not given here.

Substance | normalised inhibition (eCFP-eYFP dual reporter)
sense rCrArGrGrCrUrArCrArArCrUrUrCrArGrGrUrUdTdT / antisense rArArCrCrUrGrArArGrUrUrGrUrArGrCrCrUrGdGdG | 95.5%
sense rGrArUrUrCrUrGrCrCrCrArGrArGrArGrUrGrAdTdT / antisense rUrCrArCrUrCrUrCrUrGrGrGrCrArGrArArUrCdCdT | 96.9%
sense rArCrUrUrCrArCrUrArUrUrUrUrCrArUrCrArAdTdT / antisense rUrUrGrArUrGrArArArArUrArGrUrGrArArGrUdTdC | 92.9%
sense rCrCrGrGrCrUrCrGrArCrArGrCrGrUrUrUrCrUdTdT / antisense rArGrArArArCrGrCrUrGrUrCrGrArGrCrCrGrGdGdT | 98%
sense rArCrUrUrUrGrUrArGrGrGrUrGrGrGrUrUrUrUdTdT / antisense rArArArArCrCrCrArCrCrCrUrArCrArArArGrUdAdG | 89.4%
sense rUrCrGrGrUrCrUrUrUrGrUrCrArUrCrArUrCrAdTdT / antisense rUrGrArUrGrArUrGrArCrArArArGrArCrCrGrAdGdG | 72.8%
sense rGrGrGrUrArGrGrGrGrArCrGrUrGrGrUrCrArAdTdT / antisense rUrUrGrArCrCrArCrGrUrCrCrCrCrUrArCrCrCdGdC | 94.9%
sense rArArGrArCrCrUrGrCrCrGrCrUrUrCrCrArCrCdTdT / antisense rGrGrUrGrGrArArGrCrGrGrCrArGrGrUrCrUrUdCdA | 39.9%
sense rGrGrUrArCrGrGrGrArCrArCrArGrCrCrArUrUdTdT / antisense rArArUrGrGrCrUrGrUrGrUrCrCrCrGrUrArCrCdTdG | 61.2%
sense rArCrArGrCrCrArGrGrGrArCrArUrGrArArGrAdTdT / antisense rUrCrUrUrCrArUrGrUrCrCrCrUrGrGrCrUrGrUdCdA | 78.1%
sense rGrArGrUrArGrUrUrCrArGrCrUrUrCrUrGrArUdTdT / antisense rArUrCrArGrArArGrCrUrGrArArCrUrArCrUrCdGdG | 91.8%
sense rGrCrGrGrCrCrUrUrUrArCrUrUrCrUrGrUrGrGdTdT / antisense rCrCrArCrArGrArArGrUrArArArGrGrCrCrGrCdCdA | 61.4%
sense rCrUrCrUrGrUrGrCrUrCrCrGrGrArCrCrUrGrUdTdT / antisense rArCrArGrGrUrCrCrGrGrArGrCrArCrArGrArGdCdT | 41.9%
sense rUrCrArGrArCrArGrCrCrArGrUrGrCrGrGrGrCdTdT / antisense rGrCrCrCrGrCrArCrUrGrGrCrUrGrUrCrUrGrAdTdA | 23.8%
sense rArUrCrGrGrGrArUrCrArUrCrArArCrCrGrArGdTdT / antisense rCrUrCrGrGrUrUrGrArUrGrArUrCrCrCrGrArUdGdG | 39.3%
sense rCrGrCrCrArCrCrUrCrArGrGrGrCrArCrCrUrCdTdT / antisense rGrArGrGrUrGrCrCrCrUrGrArGrGrUrGrGrCrGdTdC | 13%
sense rUrGrCrArUrCrCrCrCrArArArUrArCrUrCrCrUdTdT / antisense rArGrGrArGrUrArUrUrUrGrGrGrGrArUrGrCrAdCdT | 56.3%
sense rGrArGrGrArGrArArArUrArCrCrGrCrUrGrUrGdTdT / antisense rCrArCrArGrCrGrGrUrArUrUrUrCrUrCrCrUrCdAdC | 67.4%
sense rArGrGrArGrArArArUrArCrCrGrCrUrGrUrGrUdTdT / antisense rArCrArCrArGrCrGrGrUrArUrUrUrCrUrCrCrUdCdA | 71.8%

target: DENND5A; test: reporter assay of Huesken 2005; settings: siRNA

Substance | normalised inhibition (eCFP-eYFP dual reporter)
sense rCrCrArGrCrCrUrUrUrGrUrGrArUrCrUrCrCrUdTdT / antisense rArGrGrArGrArUrCrArCrArArArGrGrCrUrGrGdCdA | 47.1%
sense rCrArUrUrCrArGrArUrCrCrGrGrGrArArGrUrUdTdT / antisense rArArCrUrUrCrCrCrGrGrArUrCrUrGrArArUrGdTdT | 74.7%
sense rArGrArCrCrCrArGrGrCrUrGrArUrCrCrCrArGdTdT / antisense rCrUrGrGrGrArUrCrArGrCrCrUrGrGrGrUrCrUdTdG | 75.1%
sense rUrCrCrCrCrUrUrUrGrCrArUrUrCrCrUrArCrGdTdT / antisense rCrGrUrArGrGrArArUrGrCrArArArGrGrGrGrAdGdC | 44.7%
sense rGrArUrGrGrUrGrArArGrArCrArCrUrCrCrUrGdTdT / antisense rCrArGrGrArGrUrGrUrCrUrUrCrArCrCrArUrCdCdT | 82.9%
sense rCrArCrCrUrArCrUrCrUrCrCrGrUrArCrArUrCdTdT / antisense rGrArUrGrUrArCrGrGrArGrArGrUrArGrGrUrGdTdC | 54.7%
sense rUrUrCrGrUrGrUrGrCrUrGrCrArGrArCrArUrUdTdT / antisense rArArUrGrUrCrUrGrCrArGrCrArCrArCrGrArAdTdC | 40.2%
sense rArGrGrGrArUrGrGrUrGrCrCrArGrCrCrCrUrUdTdT / antisense rArArGrGrGrCrUrGrGrCrArCrCrArUrCrCrCrUdGdG | 83.7%
sense rGrGrArCrUrGrGrArCrArCrGrGrArGrArCrCrGdTdT / antisense rCrGrGrUrCrUrCrCrGrUrGrUrCrCrArGrUrCrCdGdC | 60.4%
sense rArUrCrCrArArCrCrCrArGrCrCrArGrGrArUrAdTdT / antisense rUrArUrCrCrUrGrGrCrUrGrGrGrUrUrGrGrArUdGdA | 51.8%
sense rArCrCrUrGrCrCrCrUrUrCrCrUrCrUrCrArArGdTdT / antisense rCrUrUrGrArGrArGrGrArArGrGrGrCrArGrGrUdAdG | 53.2%
sense rUrGrUrUrUrGrCrArGrArUrUrArUrGrArGrGrCdTdT / antisense rGrCrCrUrCrArUrArArUrCrUrGrCrArArArCrAdTdC | 38.5%
sense rUrGrCrArGrGrArGrUrUrCrArArCrArUrCrArCdTdT / antisense rGrUrGrArUrGrUrUrGrArArCrUrCrCrUrGrCrAdAdT | 62.5%
sense rArCrArUrGrArArGrArUrUrGrGrArCrArArGrGdTdT / antisense rCrCrUrUrGrUrCrCrArArUrCrUrUrCrArUrGrUdCdA | 70.5%
sense rArUrCrCrGrCrCrArGrCrCrCrArArArCrUrGrUdTdT / antisense rArCrArGrUrUrUrGrGrGrCrUrGrGrCrGrGrArUdAdG | 40.9%
sense rArUrUrGrArCrCrArUrArCrUrGrCrArArUrUrCdTdT / antisense rGrArArUrUrGrCrArGrUrArUrGrGrUrCrArArUdTdT | 45.9%
sense rUrGrCrCrGrCrUrCrCrCrArCrCrUrCrCrUrGrGdTdT / antisense rCrCrArGrGrArGrGrUrGrGrGrArGrCrGrGrCrAdCdC | 24.9%

Substance | normalised inhibition (eCFP-eYFP dual reporter)
sense rUrCrUrCrCrUrGrCrArUrUrUrCrUrUrArGrArUdTdT / antisense rArUrCrUrArArGrArArArUrGrCrArGrGrArGrAdGdA | 51.3%
sense rArCrUrGrGrGrGrUrGrArGrCrCrUrGrGrArArAdTdT / antisense rUrUrUrCrCrArGrGrCrUrCrArCrCrCrCrArGrUdTdC | 37.1%
sense rArGrGrArGrArArUrUrGrGrGrUrGrArGrArCrAdTdT / antisense rUrGrUrCrUrCrArCrCrCrArArUrUrCrUrCrCrUdGdA | 70.5%
sense rCrArGrUrUrCrCrCrCrArArCrArArArUrUrGrGdTdT / antisense rCrCrArArUrUrUrGrUrUrGrGrGrGrArArCrUrGdTdG | 67.9%
sense rCrUrCrUrArCrGrUrCrUrCrUrArArGrUrGrCrAdTdT / antisense rUrGrCrArCrUrUrArGrArGrArCrGrUrArGrArGdAdG | 68.3%
sense rUrUrCrCrUrUrGrArUrUrCrGrUrGrUrGrCrUrGdTdT / antisense rCrArGrCrArCrArCrGrArArUrCrArArGrGrArAdTdT | 22.1%
sense rCrUrUrGrCrCrArCrArGrUrUrCrCrCrCrArArCdTdT / antisense rGrUrUrGrGrGrGrArArCrUrGrUrGrGrCrArArGdTdC | 50.6%
sense rUrGrGrGrGrUrCrUrArUrGrGrGrCrCrArArUrAdTdT / antisense rUrArUrUrGrGrCrCrCrArUrArGrArCrCrCrCrAdGdA | 66.7%
sense rArArArUrCrArGrCrCrUrUrArUrGrGrUrCrCrCdTdT / antisense rGrGrGrArCrCrArUrArArGrGrCrUrGrArUrUrUdCdC | 41.9%
sense rArGrArGrGrArArUrGrGrGrArArCrArUrUrGrCdTdT / antisense rGrCrArArUrGrUrUrCrCrCrArUrUrCrCrUrCrUdTdG | 53.6%
sense rArUrGrCrCrArArArUrGrGrCrUrGrGrUrGrGrAdTdT / antisense rUrCrCrArCrCrArGrCrCrArUrUrUrGrGrCrArUdAdC | 69.5%
sense rUrUrGrCrArUrUrCrCrUrArCrGrArGrCrUrUrCdTdT / antisense rGrArArGrCrUrCrGrUrArGrGrArArUrGrCrArAdAdG | 50.8%
sense rArGrCrCrCrCrArArUrUrCrCrArUrGrCrCrUrUdTdT / antisense rArArGrGrCrArUrGrGrArArUrUrGrGrGrGrCrUdCdC | 57.6%
sense rArUrGrGrCrUrGrGrUrGrGrArGrUrArUrGrUrGdTdT / antisense rCrArCrArUrArCrUrCrCrArCrCrArGrCrCrArUdTdT | 71.9%
sense rArUrUrUrGrGrGrUrUrUrGrCrCrCrUrCrArCrAdTdT / antisense rUrGrUrGrArGrGrGrCrArArArCrCrCrArArArUdGdT | 72.2%
sense rUrGrCrCrGrCrArArUrArArGrArCrCrArArGrAdTdT / antisense rUrCrUrUrGrGrUrCrUrUrArUrUrGrCrGrGrCrAdTdT | 69.3%
